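Where inhibition never reached the appropriate level, the endpoint shown equals the highest concentration tested. Otherwise, values were interpolated linearly from a five-concentration, 48-hour dose response in 96-well plates. GI50 is the concentration that inhibits growth by half. TGI denotes the concentration required for complete inhibition of growth.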
Columns and labels:
Test in all cases: NCI-60 cell line screen, 48 h
DU-145 prostate = system: DU-145 prostate
HOP-62 NSCLC = system: HOP-62 NSCLC
K-562 leukemia = system: K-562 leukemia
MDA-MB-231 breast = system: MDA-MB-231 breast
NCI-H226 lung = system: NCI-H226 lung
OVCAR-3 ovarian = system: OVCAR-3 ovarian
SK-MEL-28 melanoma = system: SK-MEL-28 melanoma
SR leukemia = system: SR leukemia
ACHN renal = system: ACHN renal
CAKI-1 renal = system: CAKI-1 renal

Structure (SMILES) | GI50 (DU-145 prostate) [µM] | TGI (DU-145 prostate) [µM] | GI50 (HOP-62 NSCLC) [µM] | TGI (HOP-62 NSCLC) [µM] | GI50 (K-562 leukemia) [µM] | TGI (K-562 leukemia) [µM] | GI50 (MDA-MB-231 breast) [µM] | TGI (MDA-MB-231 breast) [µM] | GI50 (NCI-H226 lung) [µM] | TGI (NCI-H226 lung) [µM] | GI50 (OVCAR-3 ovarian) [µM] | TGI (OVCAR-3 ovarian) [µM] | GI50 (SK-MEL-28 melanoma) [µM] | TGI (SK-MEL-28 melanoma) [µM] | GI50 (SR leukemia) [µM] | TGI (SR leukemia) [µM] | TGI (ACHN renal) [µM] | TGI (CAKI-1 renal) [µM] | GI50 (ACHN renal) [µM] | GI50 (CAKI-1 renal) [µM]
CCCCOC(=O)c1ccc(NC(=O)CCl)cc1 | 1.81 | 3.26 | 1.99 | 3.96 | 2.98 | > 100 | 1.63 | 3.26 | 4.82 | 23.1 | 1.7 | 3.3 | 3.87 | 13.6 | 1.67 | 3.85 |  |  |  | 
CC(C)N1CCC2(CC1)NNc1ncccc1-n1cccc12 |  |  |  | > 100 |  | > 100 |  |  |  | > 100 |  | > 100 |  | > 100 |  |  | > 100 | > 100 |  | 
COc1ccc2c3c(c4ccccc4cc13)C(=O)N(CCN(C)CCN)C2=O | 0.0663 | 1.04 | 0.0267 | 0.264 | 0.204 | 1.32 | 0.518 | 1.94 | 0.145 | 0.383 | 0.257 | 1.19 | 1.09 | 2.48 |  |  | 0.17 | 2.82 | 0.0187 | 0.0541
CN(C)C(=S)/N=c1\ss/c(=N\C(=S)N(C)C)n1-c1ccc(Cl)cc1 |  |  |  | > 100 |  | > 100 |  |  |  | > 100 |  | > 100 |  | > 100 |  | > 100 | > 100 | > 100 |  | 
CCOC(=O)[C@H]1CSC[C@@H](C(=O)OC)N1 |  |  |  | > 100 |  | > 100 |  |  |  |  |  | > 100 |  | > 100 |  | > 100 | > 100 | > 100 |  | 
COC(=O)c1ccc(NC(=O)c2cc(OC)c(OC)c(OC)c2)cc1 |  |  |  | > 100 |  | 12 |  |  |  | > 85.4 |  | 7.77 |  | > 100 |  | > 72.8 | > 100 |  |  | 
O=C(O)C(C(=O)C(=O)C(C(=O)O)c1ccc(Cl)cc1)c1ccc(Cl)cc1 (configuration not stated) |  |  |  | 16.9 |  | 10.7 |  |  |  | 16.4 |  | 10.2 |  | 15.7 |  | 6 | 12.8 | 13.6 |  | 
O=c1cc(-c2ccccc2)nc(/C=C(\O)c2ccncc2)n1-c1ccccc1 |  |  |  | > 100 |  | > 100 |  |  |  | > 100 |  | > 100 |  | > 100 |  |  | > 100 | > 100 |  | 
COc1ccc(OC)c(NCC#N)c1 |  |  |  | > 100 |  | > 100 |  |  |  | > 100 |  | > 100 |  | > 100 |  |  | > 100 |  |  | 
CC(=O)Nc1ccc(-c2nnc(SCC(=O)Nc3cccc([N+](=O)[O-])c3)o2)cc1 |  |  |  | 45.8 |  | 57.5 |  |  |  | 23.6 |  | 40.5 |  | 33.3 |  | 89.2 | 43.7 | 55.8 |  | 
COc1cc2cc3c4c(cc(OC)c(OC)c4c2cc1OC)CCN3C(=O)N(C)C |  |  |  | > 100 |  | > 100 |  |  |  | > 100 |  | > 100 |  | > 100 |  | > 100 | > 100 | > 100 |  | 
CCOc1ccccc1N1C(=O)C(=O)C(c2nc3ccccc3o2)/C(=N\N)C1=O (configuration not stated) |  |  |  | > 100 |  | > 100 |  |  |  | > 100 |  | > 100 |  | > 100 |  |  | > 100 | > 100 |  | 
NC(=O)C(=Cc1ccc(CP(=O)(O)O)cc1)C(N)=O |  |  |  | > 100 |  | > 100 |  |  |  |  |  | > 100 |  | > 100 |  |  | > 100 | > 100 |  | 
C/C(CC(=O)Nc1ccc(Cl)cc1)=N\NC(=O)C[n+]1ccccc1 |  |  |  | > 100 |  | > 100 |  |  |  | > 100 |  | > 100 |  | > 100 |  |  | > 100 |  |  | 
O=C(Nc1ccc2[nH]c(C(=O)N3CC(CCl)c4c3cc([N+](=O)[O-])c3ccccc43)cc2c1)c1cc2ccccc2o1 (configuration not stated) | > 1100 | > 1100 | > 1100 | > 1100 |  |  | > 1100 | > 1100 | > 1100 | > 1100 | > 1100 | > 1100 | > 1100 | > 1100 | 35.2 | > 1100 |  | > 1100 |  | > 1100
NC(CC(=O)Nc1ccc(Cl)cc1)=Nc1ccccc1 |  |  |  | > 100 |  | > 100 |  |  |  | > 100 |  | > 100 |  | > 100 |  | > 100 | > 100 | > 100 |  | 
CCCCN=C(NC#N)N(Cc1ccccc1)Cc1ccccc1 |  |  |  | 62 |  | 88.1 |  |  |  | > 100 |  | 64.8 |  | 81.2 |  |  | 98.8 | 66.4 |  | 
O=c1cc(-c2ccccc2)[nH]c2c(Cl)cccc12 |  |  |  | > 100 |  | > 100 |  |  |  | 81 |  | > 100 |  | > 100 |  | > 100 | > 100 |  |  | 
CC(C)(O)[C@@H]1CC[C@@]2(C)CCC[C@H](O)[C@H]2C1 |  |  |  | > 100 |  | > 100 |  |  |  | > 100 |  | > 100 |  | > 100 |  | > 100 | > 100 | > 100 |  | 
Cc1ccc(C(=O)N2c3ccccc3N(C)n3cccc3C2CC(=O)O)cc1 (configuration not stated) |  |  |  | > 100 |  | > 100 |  |  |  | > 100 |  | > 100 |  | > 100 |  |  | > 100 | > 100 |  | 
COc1cc(C=O)c(-c2cc3c(cc2C2(C)OCCS2)OCO3)c(OC)c1OC (configuration not stated) |  |  |  | 47.1 |  | > 239 |  |  |  | 29.5 |  | 13.6 |  | 26 |  | 50 | > 99.1 | 71.4 |  | 
CCCCCCCC(=O)OCC1OC(n2cc(F)c(=O)[nH]c2=O)C(NC(=O)OCc2ccccc2)C(O)C1O (configuration not stated) |  |  |  | > 100 |  | > 100 |  |  |  |  |  | > 100 |  | > 100 |  | > 100 | > 100 | > 100 |  | 
O=C1C2=C(CCCCC2)C2CCCCC12O (configuration not stated) |  |  |  | > 100 |  | > 100 |  |  |  | > 100 |  | > 100 |  | > 100 |  | > 100 | > 100 |  |  | 
CCOC(=O)c1cc2c(cn1)[nH]c1cccc(N)c12 |  |  |  | > 100 |  | > 100 |  |  |  |  |  | > 100 |  | > 100 |  | > 100 | > 100 | > 100 |  | 
O=C1C2CC=CCC2C(=O)C12CCc1ccccc12 (configuration not stated) |  |  |  | > 100 |  | > 100 |  |  |  |  |  | > 100 |  | > 100 |  |  | > 100 | > 100 |  | 
